Reference: article PMC10485820 (European Journal of Pharmaceutical Sciences, 2023)
Values after ≈ are worked out from the molar mass of the structure shown. Where two headings read alike, the source gives them in different places.

What was measured:
[1] = Radioactivity recovery in feces after oral administration to rats (unpublished); format: in vivo
[2] = Blood-to-plasma partition ratio and fraction unbound in plasma; format: in vitro ADME; settings: Measured (in vivo)
Description: (§1) The development of the DLM was complex.

[3] = molecular target: P-glycoprotein (P-gp) (Homo sapiens, UniProt P08183); test: Preclinical transporter substrate assessment (unpublished); format: in vitro ADME
Sequence of P-glycoprotein (P-gp) (P08183 whole entry): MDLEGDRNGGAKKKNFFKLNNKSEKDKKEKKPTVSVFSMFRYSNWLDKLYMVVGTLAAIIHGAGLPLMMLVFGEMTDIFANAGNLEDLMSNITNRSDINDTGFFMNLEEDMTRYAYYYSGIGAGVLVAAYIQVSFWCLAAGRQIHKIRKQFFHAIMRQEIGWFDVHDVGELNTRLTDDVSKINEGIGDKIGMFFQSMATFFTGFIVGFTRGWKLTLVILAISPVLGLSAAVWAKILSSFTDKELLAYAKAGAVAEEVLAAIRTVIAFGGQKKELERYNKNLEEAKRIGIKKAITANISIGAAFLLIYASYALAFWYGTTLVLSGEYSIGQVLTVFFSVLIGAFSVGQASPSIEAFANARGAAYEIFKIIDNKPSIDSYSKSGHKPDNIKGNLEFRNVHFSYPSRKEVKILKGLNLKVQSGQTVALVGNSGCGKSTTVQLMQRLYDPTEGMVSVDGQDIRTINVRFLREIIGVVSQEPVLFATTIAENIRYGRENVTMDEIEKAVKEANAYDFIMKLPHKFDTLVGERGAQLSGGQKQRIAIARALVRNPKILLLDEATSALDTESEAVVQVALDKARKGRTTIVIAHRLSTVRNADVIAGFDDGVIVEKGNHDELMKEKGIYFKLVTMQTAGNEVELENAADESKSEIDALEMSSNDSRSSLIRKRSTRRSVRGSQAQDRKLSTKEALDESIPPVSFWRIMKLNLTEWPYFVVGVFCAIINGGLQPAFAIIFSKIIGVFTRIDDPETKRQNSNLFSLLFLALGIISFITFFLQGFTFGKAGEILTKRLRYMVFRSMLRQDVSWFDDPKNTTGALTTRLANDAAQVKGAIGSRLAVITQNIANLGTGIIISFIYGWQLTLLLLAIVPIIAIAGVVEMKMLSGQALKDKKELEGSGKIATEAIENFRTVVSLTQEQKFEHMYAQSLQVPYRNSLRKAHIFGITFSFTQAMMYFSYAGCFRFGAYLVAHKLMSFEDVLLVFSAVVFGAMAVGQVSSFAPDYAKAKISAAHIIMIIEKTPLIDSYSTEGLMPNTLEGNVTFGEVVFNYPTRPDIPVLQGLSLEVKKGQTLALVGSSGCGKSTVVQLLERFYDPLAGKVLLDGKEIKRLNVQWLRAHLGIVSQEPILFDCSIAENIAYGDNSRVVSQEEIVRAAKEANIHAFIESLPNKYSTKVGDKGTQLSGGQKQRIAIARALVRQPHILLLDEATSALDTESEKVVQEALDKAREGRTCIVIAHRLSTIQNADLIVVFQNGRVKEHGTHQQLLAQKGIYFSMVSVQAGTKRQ

[4] = Particle size distribution of the API (laser diffraction); format: physicochemical; settings: dry method
Description: The determination was performed in a dry method with a Scirocco dry powder feeder, and the air was used as the dispersion agent ([Tari et al., 2015]). Meanwhile, the analysis results, d (0.1), d (0.5) and d (0.9) (defined as the diameter where 10%, 50% and 90% of population lies below this value), were directly output.

[5] = Equilibrium solubility of the HSK7653 API in various media; format: physicochemical; settings: 37 °C, thermodynamic from solid
Description: Tests were performed by adding an excess amount of API to vials and stirring continuously at a speed of 200 rpm for 24 h at 37 °C. The API concentration was detected once per minute by an in situ fiber-optic ultraviolet (UV) dissolution real-time monitoring system (Pion Scientific Instruments, Billerica, MA, USA). All measurements were performed with n = 3.

[6] = molecular target: T1, OATP1B1 (Homo sapiens, UniProt Q9Y6L6); test: Preclinical transporter substrate assessment (unpublished); format: in vitro ADME
T1 sequence (Q9Y6L6 1-691): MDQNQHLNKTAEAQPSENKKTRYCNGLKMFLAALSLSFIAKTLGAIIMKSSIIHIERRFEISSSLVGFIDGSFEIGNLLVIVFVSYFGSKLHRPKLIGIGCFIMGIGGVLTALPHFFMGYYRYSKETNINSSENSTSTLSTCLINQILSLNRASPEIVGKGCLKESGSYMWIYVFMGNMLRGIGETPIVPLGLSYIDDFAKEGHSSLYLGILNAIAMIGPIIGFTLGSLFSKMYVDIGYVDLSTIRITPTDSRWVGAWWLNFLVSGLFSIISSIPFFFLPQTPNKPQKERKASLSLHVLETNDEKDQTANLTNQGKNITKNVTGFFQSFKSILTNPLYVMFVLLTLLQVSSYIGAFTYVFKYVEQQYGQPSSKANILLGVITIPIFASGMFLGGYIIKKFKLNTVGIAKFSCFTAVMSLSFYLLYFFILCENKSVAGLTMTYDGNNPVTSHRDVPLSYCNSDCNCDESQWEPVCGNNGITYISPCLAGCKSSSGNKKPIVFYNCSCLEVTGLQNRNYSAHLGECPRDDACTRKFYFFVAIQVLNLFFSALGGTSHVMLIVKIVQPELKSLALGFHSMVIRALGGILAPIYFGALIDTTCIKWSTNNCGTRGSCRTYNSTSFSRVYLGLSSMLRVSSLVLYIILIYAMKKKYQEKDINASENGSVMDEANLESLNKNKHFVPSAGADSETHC

[7] = molecular target: T2, OCT3 (Homo sapiens, UniProt O75751); test: as above; format: in vitro ADME
T2 sequence (O75751 1-556): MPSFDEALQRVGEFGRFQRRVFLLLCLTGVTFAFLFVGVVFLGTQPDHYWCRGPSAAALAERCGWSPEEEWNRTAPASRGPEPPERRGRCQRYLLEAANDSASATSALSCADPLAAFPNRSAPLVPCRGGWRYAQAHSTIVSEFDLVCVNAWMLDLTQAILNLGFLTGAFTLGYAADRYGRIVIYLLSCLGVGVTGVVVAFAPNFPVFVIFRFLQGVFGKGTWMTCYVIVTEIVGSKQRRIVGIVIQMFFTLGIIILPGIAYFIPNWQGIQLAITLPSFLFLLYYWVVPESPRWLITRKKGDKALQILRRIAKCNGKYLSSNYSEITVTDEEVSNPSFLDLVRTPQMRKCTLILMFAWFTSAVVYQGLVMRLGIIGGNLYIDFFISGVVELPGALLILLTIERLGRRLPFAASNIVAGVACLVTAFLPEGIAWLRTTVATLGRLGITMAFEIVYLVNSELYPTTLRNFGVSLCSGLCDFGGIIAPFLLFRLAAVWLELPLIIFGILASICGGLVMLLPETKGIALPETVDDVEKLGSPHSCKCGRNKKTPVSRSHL

[8] = Bioavailability in rats (unpublished); settings: rat, in vivo, oral
[9] = system: Caco-2 monolayer cells; test: Apparent permeability in Caco-2 monolayer cell lines; format: in vitro ADME; settings: from Papp A→B at 1, 5, 20 μM
Description: (§2) All experiments were performed in triplicate and analyzed by high-performance liquid chromatography with tandem mass spectrometry (HPLC-MS/MS). The apparent permeability coefficient (Papp) of each compound under the corresponding concentration was calculated according to Eq. (1) and listed as follows:(1) Papp=dQ/dt×1/A×C0 Where Papp was the apparent permeability coefficient (cm/s × 10^−6), dQ/dt (pmol/second) was the rate at which the compound appears in the receiver side, C0 (nM) was the initial concentration of the compound in the donor side, and A (cm^2) represented the surface area of the cell monolayer.

[10] = as above; format: in vitro ADME; settings: human, Caco-2
Description: as §2

[11] = Renal clearance from in vivo clinical study; settings: human, oral; Measured (in vivo); read-out: CLR (renal clearance) (converted)
Description: as §1

[12] = Single ascending dose clinical study in Chinese healthy volunteers (CTR20180791): pharmacokinetics; format: in vivo, human; settings: for AUC / Cmax / clearance / Vd/F: human, in vivo, oral, Chinese healthy volunteers; for clearance: read-out: CL Obs (converted); for Vd/F: read-out: VZ/F Obs
[13] = 10 mg, 10 mg single dose, fasted
[14] = 25 mg, 25 mg single dose, fasted
[15] = 50 mg, 50 mg single dose, fasted
[16] = 100 mg, 100 mg single dose, fasted
[17] = 150 mg, 150 mg single dose, fasted

CS(=O)(=O)n1cc2c(n1)CN([C@@H]1C[C@H](N)[C@@H](c3cc(F)ccc3F)O[C@@H]1C(F)(F)F)C2 [HSK7653]
Radioactivity recovered in feces [1]: approximately 62.1% | fraction unbound [2]: 0.143 | Transporter substrate assessment [3]: not a common transport substrate | d (0.1) [4]: 1.313 μm | d (0.5) [4]: 3.288 μm | d (0.9) [4]: 8.163 μm | solubility at 24 h ([5]; fassgf or other biorelevant, FaSSGF medium): ~5310 µg/mL (≈ 11.4 mM) | solubility at 24 h ([5]; FaSSIF medium): ~342 µg/mL (≈ 0.733 mM) | solubility thermodynamic at 24 h ([5]; pH 1.0 hydrochloric acid (HCl) solution, simulated gastric fluid, pH 1.0 HCl solution): 11600 µg/mL (≈ 24.8 mM) | solubility thermodynamic at 24 h ([5]; pH 8.0 phosphate buffer saline (PBS), aqueous buffer, pH 8.0 PBS): 120 µg/mL (≈ 0.257 mM) | Transporter substrate assessment [6]: not a common transport substrate | Transporter substrate assessment [7]: not a common transport substrate | bioavailability [8]: 94.5% | Permeability classification [9]: high-permeability compound | Papp A→B at 2 h, 1 μM ([10]; 1 μM, 2 h, 37 °C): 25.3 ×10⁻⁶ cm/s | Papp A→B at 2 h, 5 μM ([10]; 5 μM, 2 h, 37 °C): 29.3 ×10⁻⁶ cm/s | Papp A→B at 2 h, 20 μM ([10]; 20 μM, 2 h, 37 °C): 40.3 ×10⁻⁶ cm/s | Papp at 2 h ([10]; average value of Papp at different incubation concentrations, apical pH: basolateral pH 7.4: 7.4, read-out: Caco-2 permeability, model input): 31.6 ×10⁻⁶ cm/s | CL renal [11]: 6.22 mL/min | Increase in AUC under the fed state compared with the fasted state ([12]; clinical study): 3% | AUC ([12]; 5 mg, 5 mg single dose, fasted): 8980 ng·h/mL | Cmax ([12]; 5 mg, 5 mg single dose, fasted): 101 ng/mL | clearance ([12]; 5 mg, 5 mg single dose, fasted): 9.67 mL/min | Vd/F ([12]; 5 mg, 5 mg single dose, fasted): 1.65 L/kg | AUC [12, 13]: 17700 ng·h/mL | Cmax [12, 13]: 237 ng/mL | clearance [12, 13]: 9.67 mL/min | Vd/F [12, 13]: 1.71 L/kg | AUC [12, 14]: 40500 ng·h/mL | Cmax [12, 14]: 413 ng/mL | clearance [12, 14]: 10.2 mL/min | Vd/F [12, 14]: 1.52 L/kg | AUC [12, 15]: 90400 ng·h/mL | Cmax [12, 15]: 981 ng/mL | clearance [12, 15]: 9.67 mL/min | Vd/F [12, 15]: 1.26 L/kg | AUC ([12]; 50 mg, 50 mg single dose, fed): 92900 ng·h/mL | Cmax ([12]; 50 mg, 50 mg single dose, fed): 834 ng/mL | clearance ([12]; 50 mg, 50 mg single dose, fed): 9.5 mL/min | Vd/F ([12]; 50 mg, 50 mg single dose, fed): 1.37 L/kg | AUC [12, 16]: 218000 ng·h/mL | Cmax [12, 16]: 2130 ng/mL | clearance [12, 16]: 8.33 mL/min | Vd/F [12, 16]: 1.07 L/kg | AUC [12, 17]: 269000 ng·h/mL | Cmax [12, 17]: 3330 ng/mL | clearance [12, 17]: 11 mL/min | Vd/F [12, 17]: 1.13 L/kg | Dose linearity ([12]; within the currently selected therapeutic dose range): dose linear
